Experimental data taken from paper PMC6008491, “Discovery of a novel allosteric inhibitor scaffold for polyadenosine-diphosphate-ribose polymerase 14 (PARP14) macrodomain 2” (Bioorganic & Medicinal Chemistry, 2018).
Where a name gives a salt, the structure may show the parent alone.

Molecular target: T1, PARP14 MD2 (Homo sapiens, UniProt Q460N5)
T1 sequence (Q460N5 1003-1190 limits assumed): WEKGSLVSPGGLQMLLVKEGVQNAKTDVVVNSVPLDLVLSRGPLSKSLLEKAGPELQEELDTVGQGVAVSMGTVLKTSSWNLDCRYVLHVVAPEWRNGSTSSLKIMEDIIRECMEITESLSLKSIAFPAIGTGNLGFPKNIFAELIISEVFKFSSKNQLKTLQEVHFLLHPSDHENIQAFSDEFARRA
Assay: AlphaScreen competitive binding assay, displacement of ADP-ribose peptide from PARP14 MD2
Set-up: PARP14 MD2 (second MD of PARP14)
Conditions: not given
From the text: Compounds were profiled for binding activity with PARP14 MD2 through a competitive (AlphaScreen™) binding assay measuring the displacement of ADP-ribose peptide from PARP14 MD2.[11a]

`CC(Nc1ccccc1-c1cccc2c1[nH]c1ccccc12)C(F)(F)F` (racemic) [compound 51, (±)-2-(9H-Carbazol-1-yl)-N-(1,1,1-trifluoropropan-2-yl)aniline] was tested, and the “inhibition of PARP14 MD2 (in words)” value was “complete loss of activity”.
For `CC(=O)Nc1ccccc1-c1ccccc1Nc1ccccc1` [compound 31, N-[2'-(Phenylamino)-(1,1'-biphenyl)-2-yl]acetamide], the “inhibition of PARP14 MD2 (in words)” value was “completely inactive”.
With `CC(=O)Nc1ccccc1-c1cccc2c(=O)c3ccccc3[nH]c12` [compound 33, N-[2-(9-Oxo-9,10-dihydroacridin-4-yl)phenyl]acetamid] the “inhibition of PARP14 MD2 (in words)” value was “inactive”.
With `COc1ccc2[nH]c3c(-c4ccccc4NC(C)=O)cccc3c2c1` [compound 39, N-[2-(6-Methoxy-9H-carbazol-1-yl)phenyl]acetamide] the “inhibition of PARP14 MD2 (in words)” value was “inactive”.
With `CC(=O)Nc1ccccc1-c1cccc2c3c([nH]c12)CCNC3` [compound 47, N-[2-(2,3,4,5-Tetrahydro-1H-pyrido[4,3-b]indol-6-yl)phenyl]acetamide hydrochloride] the “inhibition of PARP14 MD2 (in words)” value was “inactive”.

Same assay, conditions: Table 1; AlphaScreen, PARP14 MD2; read-out: IC50

First: CC(=O)Nc1cnccc1-c1cccc2c1[nH]c1ccccc12 [compound 17]
Second: CC(=S)Nc1ccccc1-c1cccc2c1[nH]c1ccccc12 [compound 52, N-[2-(9H-Carbazol-1-yl)phenyl]thioacetamide]
The IC50 of the first is higher: over 50 µM for the first, 10.5 ± 0.4 µM for the second. The second is the more potent here.

Going from `CC(C)(C)NC(=O)Nc1ccccc1-c1cccc2c1[nH]c1ccccc12` [compound 49, 1-[2-(9H-Carbazol-1-yl)phenyl]-3-(tert-butyl)urea] to `CCC(=O)Nc1ccccc1-c1cccc2c1[nH]c1ccccc12` [compound 66, N-(2-(9H-carbazol-1-yl)phenyl)propionamide], the IC50 falls from 7.2 ± 1.4 µM to 1 ± 0.03 µM (7.2-fold).

Compared with `CCNc1ccccc1-c1cccc2c1[nH]c1ccccc12` [compound 53, 2-(9H-Carbazol-1-yl)-N-ethylaniline], `CCS(=O)(=O)Nc1ccccc1-c1cccc2c1[nH]c1ccccc12` [compound 62, N-(2-(9H-carbazol-1-yl)phenyl)ethanesulfonamide] is lower in IC50: over 50 µM for the first, 1.2 ± 0.03 µM for the second. The second is the more potent here.

Compared with `CCN(C(C)=O)c1ccccc1-c1cccc2c1[nH]c1ccccc12` [compound 54, N-[2-(9H-Carbazol-1-yl)phenyl]-N-ethylacetamide], `CN(C)CC(=O)Nc1ccccc1-c1cccc2c1[nH]c1ccccc12` [compound 65, N-(2-(9H-carbazol-1-yl)phenyl)-2-(dimethylamino)acetamide] is lower in IC50: over 50 µM for the first, 5.5 ± 0.6 µM for the second.

Going from `Cc1ccc(-c2cccc3c2[nH]c2ccccc23)c(NS(C)(=O)=O)c1` [compound 55, N-(2-(9H-Carbazol-1-yl)-5-methylphenyl)methanesulfonamide] to `Cc1ccc(-c2cccc3c2[nH]c2ccccc23)c(N)c1` [compound 59, 2-(9H-Carbazol-1-yl)-5-methylaniline], the IC50 rises from 1.1 ± 0.1 µM to over 50 µM.

`CS(=O)(=O)Nc1ccc(C(F)(F)F)cc1-c1cccc2c1[nH]c1ccccc12` [compound 58, N-(2-(9H-Carbazol-1-yl)-4-(trifluoromethyl)phenyl)methanesulfonamide] and `Nc1ccc(C(F)(F)F)cc1-c1cccc2c1[nH]c1ccccc12` [compound 60, 2-(9H-Carbazol-1-yl)-4-(trifluoromethyl)aniline] cannot be ordered by IC50: over 50 µM for the first, over 50 µM for the second.

Going from `Cc1cccc(N)c1-c1cccc2c1[nH]c1ccccc12` [compound 61, 2-(9H-Carbazol-1-yl)-3-methylaniline] to `CCCC(=O)Nc1ccccc1-c1cccc2c1[nH]c1ccccc12` [compound 67, N-(2-(9H-carbazol-1-yl)phenyl)butyramide], the IC50 falls from over 50 µM to 0.9 ± 0.04 µM.

`CCCS(=O)(=O)Nc1ccccc1-c1cccc2c1[nH]c1ccccc12` [compound 63, N-(2-(9H-Carbazol-1-yl)phenyl)propane-1-sulfonamide] and `CCCCS(=O)(=O)Nc1ccccc1-c1cccc2c1[nH]c1ccccc12` [compound 64, N-(2-(9H-Carbazol-1-yl)phenyl)butane-1-sulfonamide] are within 1.5-fold of each other in IC50: 2.9 ± 0.1 µM for the first, 3.3 ± 0.1 µM for the second.

Compared with `CCCCC(=O)Nc1ccccc1-c1cccc2c1[nH]c1ccccc12` [compound 68, N-(2-(9H-carbazol-1-yl)phenyl)pentanamide], `O=C(Nc1ccccc1-c1cccc2c1[nH]c1ccccc12)C1CC1` [compound 74, N-(2-(9H-carbazol-1-yl)phenyl)cyclopropanecarboxamide] is lower in IC50: over 50 µM for the first, 1.2 ± 0.03 µM for the second.

Compared with `COCCS(=O)(=O)Nc1ccccc1-c1cccc2c1[nH]c1ccccc12` [compound 69, N-(2-(9H-Carbazol-1-yl)phenyl)-2-methoxyethane-1-sulfonamide], `CN(C)S(=O)(=O)Nc1ccccc1-c1cccc2c1[nH]c1ccccc12` [compound 71, N1-(2-(9H-Carbazol-1-yl)phenyl)-N2,N2-dimethylsulfamide] is 3.4-fold lower in IC50: 8.6 ± 0.4 µM for the first, 2.5 ± 0.1 µM for the second.

`Cc1oncc1S(=O)(=O)Nc1ccccc1-c1cccc2c1[nH]c1ccccc12` [compound 70, N-(2-(9H-Carbazol-1-yl)phenyl)-5-methylisoxazole-4-sulfonamide] and `O=S(=O)(Nc1ccccc1-c1cccc2c1[nH]c1ccccc12)c1ccccc1` [compound 72, N-(2-(9H-Carbazol-1-yl)phenyl)benzenesulfonamide] cannot be ordered by IC50: over 50 µM for the first, over 50 µM for the second.

Compared with `O=C(Nc1ccccc1-c1cccc2c1[nH]c1ccccc12)C(F)(F)F` [compound 73, N-(2-(9H-carbazol-1-yl)phenyl)-2,2,2-trifluoroacetamide], `O=C(Nc1ccccc1-c1cccc2c1[nH]c1ccccc12)c1ccco1` [compound 76, N-(2-(9H-carbazol-1-yl)phenyl)furan-2-carboxamide] is higher in IC50: 1.1 ± 0.07 µM for the first, over 50 µM for the second.

Compared with `O=C(Nc1ccccc1-c1cccc2c1[nH]c1ccccc12)C1CCCCC1` [compound 75, N-(2-(9H-carbazol-1-yl)phenyl)cyclohexanecarboxamide], `O=C(Nc1ccccc1-c1cccc2c1[nH]c1ccccc12)c1ccccc1` [compound 77, N-(2-(9H-carbazol-1-yl)phenyl)benzamide] is lower in IC50: over 50 µM for the first, 1.9 ± 0.07 µM for the second.

First: O=C(Cc1ccccc1)Nc1ccccc1-c1cccc2c1[nH]c1ccccc12 [compound 78, N-(2-(9H-Carbazol-1-yl)phenyl)-2-phenylacetamide]
Second: O=S(=O)(Cc1ccccc1)Nc1ccccc1-c1cccc2c1[nH]c1ccccc12 [compound 79, N-(2-(9H-Carbazol-1-yl)phenyl)-1-phenylmethanesulfonamide]
The IC50 of the first is 2.1-fold higher: 7.6 ± 0.3 µM for the first, 3.6 ± 0.3 µM for the second.

Going from `COc1ccccc1C(=O)Nc1ccccc1-c1cccc2c1[nH]c1ccccc12` [compound 80, N-(2-(9H-Carbazol-1-yl)phenyl)-2-methoxybenzamide] to `COc1cccc(C(=O)Nc2ccccc2-c2cccc3c2[nH]c2ccccc23)c1` [compound 81, N-(2-(9H-Carbazol-1-yl)phenyl)-3-methoxybenzamide], the IC50 falls from over 50 µM to 12.7 ± 1.5 µM. The second is the more potent here.

`COc1ccc(C(=O)Nc2ccccc2-c2cccc3c2[nH]c2ccccc23)cc1` [compound 82, N-(2-(9H-Carbazol-1-yl)phenyl)-4-methoxybenzamide] showed an IC50 of 9 ± 1.4 µM.

Same assay, conditions: Table 2; AlphaScreen, PARP14 MD2; read-out: IC50

In order of falling IC50:
1. N#Cc1ccc(CC(=O)Nc2ccccc2-c2cccc3c2[nH]c2ccccc23)cn1 [compound 87, N-(2-(9H-Carbazol-1-yl)phenyl)-2-(6-cyanopyridin-3-yl)acetamide]  3.5 ± 0.2 µM
2. N#Cc1cc(CC(=O)Nc2ccccc2-c2cccc3c2[nH]c2ccccc23)ccn1 [compound 86, N-(2-(9H-Carbazol-1-yl)phenyl)-2-(2-cyanopyridin-4-yl)acetamide]  2.4 ± 0.2 µM

Same assay, conditions: text and figures; read-out: PARP14 MD2 IC50

`CC(=O)Nc1ccncc1-c1cccc2c1[nH]c1ccccc12` [compound 15] and `CC(=O)Nc1cccnc1-c1cccc2c1[nH]c1ccccc12` [compound 16, N-[2-(9H-Carbazol-1-yl)pyridin-3-yl]acetamide] cannot be ordered by IC50: over 50 µM for the first, over 50 µM for the second.

Going from `CC(=O)Nc1ccccc1-c1nccc2c1[nH]c1ccccc12` [compound 18] to `CC(=O)Nc1ccccc1-c1cccc2c1[nH]c1ccc(Cl)cc12` [compound 38, N-[2-(6-Chloro-9H-carbazol-1-yl)phenyl]acetamide], the IC50 falls from 30 µM to 3 µM (10-fold).

`CC(=O)Nc1ccccc1-c1cn2c3ccccc3c3ccnc(c1=O)c32` [compound 19] and `CC(=O)Nc1ccccc1-c1cn2c3ccccc3c3cccc(c1=O)c32` [compound 20, N-[2-(4-Oxo-4H-pyrido[3,2,1-jk]carbazol-5-yl)phenyl]acetamide] cannot be ordered by IC50: over 50 µM for the first, over 50 µM for the second.

`CC(=O)Nc1ccccc1-c1cccc2c3ccccc3n(C)c12` [compound 24, N-[2-(9-Methyl-9H-carbazol-1-yl)phenyl]acetamide] and `CC(=O)Nc1ccccc1-c1cccc2c1oc1ccccc12` [compound 26, N-[2-(Dibenzofuran-4-yl)phenyl]acetamide] cannot be ordered by IC50: over 50 µM for the first, over 50 µM for the second.

First: CC(=O)Nc1ccccc1-c1cccc2c3ccccc3n(Cc3ccccc3)c12 [compound 25, N-[2-(9-Benzyl-9H-carbazol-1-yl)phenyl]acetamide]
Second: CC(=O)Nc1ccccc1-c1cccc2c1sc1ccccc12 [compound 27, N-[2-(Dibenzothiophen-4-yl)phenyl]acetamide]
The IC50 of the first is higher: over 50 µM for the first, 2.5 µM for the second.

`CC(=O)Nc1ccccc1-c1cccc2c1C(=O)c1ccccc1-2` [compound 28, N-[2-(9-Oxo-9H-fluoren-1-yl)phenyl]acetamide] and `CC(=O)Nc1ccccc1-c1cccc2c1C(O)c1ccccc1-2` (stereo not shown) [compound 29, N-[2-(9-Hydroxy-9H-fluoren-1-yl)phenyl]acetamide] cannot be ordered by IC50: over 50 µM for the first, over 50 µM for the second.

`CC(=O)Nc1ccccc1-c1cccc2c1[nH]c1c(Cl)c(Cl)ccc12` [compound 37, N-[2-(7,8-Dichloro-9H-carbazol-1-yl)phenyl]acetamide] and `CC(=O)Nc1ccccc1-c1cccc2c3c([nH]c12)CCCC3` [compound 44, N-[2-(5,6,7,8-Tetrahydro-9H-carbazol-1-yl)phenyl]acetamide] are within 1.5-fold of each other in IC50: 1.4 µM for the first, 1.1 µM for the second.
